By remaining activity is commonly meant the share of the control activity or signal that is left under treatment.

We go through four compounds from article PMC5840727, “Cysteine peptidases of Eudiplozoon nipponicum: a broad repertoire of structurally assorted cathepsins L in contrast to the scarcity of cathepsins B in an invasive species of haematophagous monogenean of common carp” (Parasites & Vectors, 2018).

Format in all cases: biochemical
Test [1] deals with T1, yrEnCL3 (EnCL3, E. nipponicum cathepsin L3) (Eudiplozoon nipponicum, UniProt A0A0K1L960).
T1 construct: Pichia pastoris X-33 (pPICZalpha B), His-tag; full transcript 368 residues
T1 sequence (A0A0K1L960 entry or part of it): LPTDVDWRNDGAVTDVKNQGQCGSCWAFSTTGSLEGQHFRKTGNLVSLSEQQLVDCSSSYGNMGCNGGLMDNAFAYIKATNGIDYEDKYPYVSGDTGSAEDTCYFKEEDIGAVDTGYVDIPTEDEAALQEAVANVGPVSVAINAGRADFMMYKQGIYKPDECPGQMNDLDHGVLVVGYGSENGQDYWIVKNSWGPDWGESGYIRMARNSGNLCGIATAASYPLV
Nature of the test: fluorogenic AMC release. As to conditions: 50 uM substrate, 2 mM DTT, citrate/phosphate buffer, pH optimum 6, 28 °C.

The target in test [2] is T2, yrEnCB (EnCB, E. nipponicum cathepsin B) (Eudiplozoon nipponicum, UniProt A0A2P1FSY4).
T2 construct: Pichia pastoris X-33 (pPICZalpha B), His-tag; self-processed, deglycosylated with endoglycosidase F1, ~29 kDa; full transcript 382 residues
T2 sequence (A0A2P1FSY4 entry or part of it): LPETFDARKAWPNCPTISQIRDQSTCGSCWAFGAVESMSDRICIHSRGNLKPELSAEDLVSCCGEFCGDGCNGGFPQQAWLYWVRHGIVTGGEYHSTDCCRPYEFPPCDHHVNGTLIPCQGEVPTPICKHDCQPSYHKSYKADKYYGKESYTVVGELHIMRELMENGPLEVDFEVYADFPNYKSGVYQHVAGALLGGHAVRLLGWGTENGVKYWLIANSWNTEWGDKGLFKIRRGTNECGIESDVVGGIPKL
The test can be described thus: fluorogenic AMC release. The note with it: 50 uM substrate, 2 mM DTT, citrate/phosphate buffer, pH optimum 5, 28 °C.

Test [3] concerns the target T3, yrEnCL1 (EnCL1, E. nipponicum cathepsin L1) (Eudiplozoon nipponicum, UniProt A0A0K1L8K1).
T3 construct: Expressed as pro-enzyme in Pichia pastoris X-33 (pPICZalpha B), His-tag, self-processed in medium to ~28 kDa partially processed form, partially purified; full transcript 317 residues
The test can be described thus: fluorogenic AMC release. As to conditions: 50 uM substrate, 2 mM DTT, citrate/phosphate buffer, pH optimum 5.5, 28 °C; partially purified enzyme.

Test [4] has as its target T1, yrEnCL3 (EnCL3, E. nipponicum cathepsin L3). Nature of the test: fluorogenic peptidase inhibition assay (AMC release). As to conditions: read-out: % remaining activity at 10 uM.
The target in test [5] is T3, yrEnCL1 (EnCL1, E. nipponicum cathepsin L1). The description is as above. The note with it: read-out: % remaining activity at 10 uM.

Where a SMILES comes first, the peptide text is derived from it. Where no end group is shown, it is not given here. The star is where a group is joined. AMC = Cc1cc(=O)oc2cc(N*)ccc12; Cbz = O=C(OCc1ccccc1)*

T3 sequence (A0A0K1L8K1 entry or part of it): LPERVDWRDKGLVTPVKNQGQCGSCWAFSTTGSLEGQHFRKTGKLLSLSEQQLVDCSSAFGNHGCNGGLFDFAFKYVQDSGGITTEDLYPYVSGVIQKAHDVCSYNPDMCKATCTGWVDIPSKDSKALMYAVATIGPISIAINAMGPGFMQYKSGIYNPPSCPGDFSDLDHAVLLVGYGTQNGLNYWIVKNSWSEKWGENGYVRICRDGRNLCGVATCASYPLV

For `Cc1cc(=O)oc2cc(NC(=O)[C@H](CCCNC(=N)N)NC(=O)[C@H](Cc3ccccc3)NC(=O)OCc3ccccc3)ccc12` [Z-Phe-Arg-AMC] (Cbz-Phe-Arg-{AMC}), the “fluorogenic AMC release” value is “Both EnCLs efficiently hydrolysed the FR substrate, and to a lesser extent the LR” in test [1]; “The preferred substrate for yrEnCB was the FR, while RR was cleaved less efficiently” in test [2]; “Both EnCLs efficiently hydrolysed the FR substrate, and to a lesser extent the LR” in test [3].

As for RKLLW-NH2 [iCL], in test [4], the remaining activity at 10 µM is roughly 40%.

For `Cc1cc(=O)oc2cc(NC(=O)[C@H](CCCNC(=N)N)NC(=O)[C@H](CC(C)C)NC(=O)OCc3ccccc3)ccc12` [Z-Leu-Arg-AMC], the “fluorogenic AMC release” value is “Both EnCLs efficiently hydrolysed the FR substrate, and to a lesser extent the LR” in test [1]; “Both EnCLs efficiently hydrolysed the FR substrate, and to a lesser extent the LR” in test [3].

`CCCNC(=O)[C@H]1O[C@@H]1C(=O)N[C@H](C(=O)N1CCC[C@H]1C(=O)O)[C@@H](C)CC` [CA-074, N-[L-3-trans-propylcarbamoyloxirane-2-carbonyl]-Ile-Pro-OH]: the remaining activity at 10 µM is roughly 70% in test [5] and 45 to 65% in test [4].
